Measurements: US9133147B2, “Thrombin inhibitors” (Merck Sharp & Dohme Corp., priority 2012, dated 2015)
Where a name gives a salt, the structure may show the parent alone.

Biological target: human α-thrombin (Homo sapiens, UniProt P00734)
Assay: In vitro assay for determining proteinase inhibition (thrombin Ki)
Type: biochemical
Conditions: 25° C., 0.05 M TRIS buffer pH 7.4, 0.15 M NaCl, 0.1% PEG; sar-PR-pna or Z-GPR-afc substrate; competitive inhibition assumed
Description: Unless otherwise stated, all NMR determinations were made using 400 MHz field strength. Ki data was obtained according to the procedure described in Lewis, et al. Thromb. Res. 1993, 70, 173 (assays of human-thrombin and human trypsin), and Lewis, et al. Thromb. Haemostasis 1995, 74, 1107-1112.
Relevant in vitro assays are referenced in Morrissette, et al., Bioorg. Med. Chem. Lett. 2004, 14, 4161-4164 and described in Lewis, et al. Thromb. Res. 1993, 70, 173 (assays of human α-thrombin and human trypsin), and Lewis, et al. Thromb. Haemostasis 1995, 74, 1107-1112. The assays were carried out at 25° C. in 0.05 M TRIS buffer pH 7.4, 0.15 M NaCl, 0.1% PEG. Trypsin assays also contained 1 mM CaCl2. In assays wherein rates of hydrolysis of a p-nitroanilide (pna) substrate were determined, a Thermomax 96-well plate reader was used was used to measure (at 405 nm) the time dependent appearance of p-nitroaniline. sar-PR-pna was used to assay human α-thrombin (Km=125 μM) and bovine trypsin (Km=125 μM). p-Nitroanilide substrate concentration was determined from measurements of absorbance at 342 nm using an extinction coefficient of 8270 cm^−1M^−1.
In certain studies with potent inhibitors (Ki<10 nM) where the degree of inhibition of thrombin was high, a more sensitive activity assay was employed. In this assay the rate of thrombin catalyzed hydrolysis of the fluorogenic substrate benzyloxycarbonyl-Gly-Pro-Arg-7-amino-4-trifluoromethylcoumarin (Z-GPR-afc, Lewis S. D. et al. (1998) J. Biol. Chem. 273, pp. 4843-4854) (Km=27 μM) was determined from the increase in fluorescence at 500 nm (excitation at 400 nm) associated with production of 7-amino-4-trifluoromethyl coumarin. Concentrations of stock solutions of Z-GPR-afc were determined from measurements of absorbance at 380 nm of the 7-amino-4-trifluoromethyl coumarin produced upon complete hydrolysis of an aliquot of the stock solution by thrombin.
Activity assays were performed by diluting a stock solution of substrate at least tenfold to a final concentration ≦0.1 Km into a solution containing enzyme or enzyme equilibrated with inhibitor. Times required to achieve equilibration between enzyme and inhibitor were determined in control experiments. Initial velocities of product formation in the absence (VO) or presence of inhibitor (Vi) were measured. Assuming competitive inhibition, and that unity is negligible compared Km/[S], [I]/e, and [I]/e (where [S], [I], and e respectively represent the total concentrations, of substrate, inhibitor and enzyme), the equilibrium constant (Ki) for dissociation of the inhibitor from the enzyme can be obtained from the dependence of VO/Vi on [I] shown in the following equation. VO/Vi=1+[I]/Ki

## CC(C)(C)[C@@H](O)C(=O)N1CCNC[C@H]1C(=O)NCc1cc(Cl)ccc1CN [Example 2, (2S)—N-[2-(aminomethyl)-5-chlorobenzyl]-1-[(2R)-2-hydroxy-3,3-dimethylbutanoyl]piperazine-2-carboxamide bis trifluoroacetate salt]
  Ki: 63 nM

## CC(C)(C)[C@@H](O)C(=O)N1CCS(=O)(=O)C[C@H]1C(=O)NCc1cc(Cl)ccc1CN [Example 7, (3R)—N-[2-(aminomethyl)-5-chlorobenzyl]-4-[(2R)-2-hydroxy-3,3-dimethylbutanoyl]thiomorpholine-3-carboxamide 1,1-dioxide trifluoroacetate salt]
  Ki: 52 nM

## CC(C)(C)[C@@H](O)C(=O)N1CCCC[C@H]1C(=O)NCc1cc(Cl)ccc1CN [Example 1, (2S)—N-[2-(aminomethyl)-5-chlorobenzyl]-1-[(2R)-2-hydroxy-3,3-dimethylbutanoyl]piperidine-2-carboxamide trifluoroacetate salt]
  Ki: 7.3 nM

## CN1CCN(C(=O)[C@H](O)C(C)(C)C)[C@H](C(=O)NCc2cc(Cl)ccc2CN)C1 [Example 3, (2S)—N-[2-(aminomethyl)-5-chlorobenzyl]-1-[(2R)-2-hydroxy-3,3-dimethylbutanoyl]-4-methylpiperazine-2-carboxamide trifluoroacetate salt]
  Ki: 34 nM

## CC(C)(C)[C@@H](O)C(=O)N1CCOC[C@H]1C(=O)NCc1cc(Cl)ccc1CN [Example 4, (3S)—N-[2-(aminomethyl)-5-chlorobenzyl]-4-[(2R)-2-hydroxy-3,3-dimethylbutanoyl]morpholine-3-carboxamide trifluoroacetate salt]
  Ki: 32 nM

## CC(C)(C)[C@@H](O)C(=O)N1CC[S+]([O-])C[C@H]1C(=O)NCc1cc(Cl)ccc1CN (stereo partly drawn) [Example 6, (3R)—N-[2-(aminomethyl)-5-chlorobenzyl]-4-[(2R)-2-hydroxy-3,3-dimethylbutanoyl]thiomorpholine-3-carboxamide 1-oxide trifluoroacetate (salt)]
  Ki: 78 nM

## CC(C)(C)[C@@H](O)C(=O)N1CCSC[C@H]1C(=O)NCc1cc(Cl)ccc1CN [Example 5, (3R)—N-[2-(aminomethyl)-5-chlorobenzyl]-4-[(2R)-2-hydroxy-3,3-dimethylbutanoyl]thiomorpholine-3-carboxamide trifluoroacetate salt]
  Ki: 1.1 nM
